Experiment: xn = mol fraction of the nth substance listed

C1COCCO1 + CC(C)O
viscosity [mPa·s]
Conditions | 298.15 K | 303.15 K | 308.15 K | 313.15 K
101 kPa, x1 = 0.4 | 1.078 | – | – | –
101 kPa, x2 = 0.1382 | – | 0.9888 | 0.9165 | –
101 kPa, x2 = 0.2768 | – | 0.9414 | 0.8803 | –
101 kPa, x2 = 0.3911 | – | 0.9353 | 0.8656 | –
101 kPa, x2 = 0.4934 | – | 0.9403 | 0.8625 | –
101 kPa, x2 = 0.5928 | – | 0.9543 | 0.8778 | –
101 kPa, x2 = 0.6977 | – | 1.014 | 0.9221 | –
101 kPa, x2 = 0.7841 | – | 1.112 | 1.012 | –
101 kPa, x2 = 0.8535 | – | 1.259 | 1.128 | –
101 kPa, x2 = 0.929 | – | 1.47 | 1.308 | –
101.3 kPa, x1 = 0.038 | 1.821 | 1.578 | 1.38 | 1.218
101.3 kPa, x1 = 0.1103 | 1.479 | 1.312 | 1.17 | 1.039
101.3 kPa, x1 = 0.213 | 1.224 | 1.099 | 0.9913 | 0.8984
101.3 kPa, x1 = 0.3316 | 1.075 | 0.9775 | 0.887 | 0.8129
101.3 kPa, x1 = 0.3634 | 1.055 | 0.9613 | 0.8738 | 0.8044
101.3 kPa, x1 = 0.4318 | 1.014 | 0.9242 | 0.8492 | 0.7791
101.3 kPa, x1 = 0.5184 | 0.9926 | 0.91 | 0.835 | 0.7724
101.3 kPa, x1 = 0.6312 | 0.9873 | 0.9117 | 0.837 | 0.7769
101.3 kPa, x1 = 0.6592 | 0.9898 | 0.9161 | 0.8392 | 0.778
101.3 kPa, x1 = 0.787 | 1.048 | 0.9473 | 0.8747 | 0.8157
101.3 kPa, x1 = 0.891 | 1.101 | 1.01 | 0.9326 | 0.8715
101.3 kPa, x1 = 0.935 | 1.131 | 1.048 | 0.9724 | 0.8943

C[N+](C)(C)CC(=O)[O-] + CC(O)C(=O)O
viscosity [mPa·s]
Conditions | 293.15 K | 298.15 K | 303.15 K | 308.15 K | 313.15 K | 318.15 K | 323.15 K
100 kPa, x2 = 0.667 | – | 1266 | 818.6 | 544.6 | 374.6 | 260.5 | 190.2
100 kPa, x2 = 0.833 | 386.6 | 245.3 | 167.7 | 120.4 | 86.1 | 65.5 | 50.6
101 kPa, x1 = 0.5 | – | 17780 | – | – | – | 6043 | –

Brc1ccccc1 + CCC(C)=O
303.15 K, 101 kPa
Conditions | viscosity [mPa·s]
x2 = 0.1487 | 0.899
x2 = 0.2073 | 0.858
x2 = 0.3888 | 0.74
x2 = 0.5263 | 0.656
x2 = 0.7046 | 0.556
x2 = 0.8307 | 0.486

CC(C)N + CCC(C)=O
298.15 K, 101 kPa
Conditions | viscosity [mPa·s]
x2 = 0.0835 | 0.288
x2 = 0.1701 | 0.3
x2 = 0.26 | 0.314
x2 = 0.3534 | 0.33
x2 = 0.4505 | 0.345
x2 = 0.5515 | 0.358
x2 = 0.6567 | 0.37
x2 = 0.7663 | 0.371
x2 = 0.8806 | 0.372

C1COCCO1 + CCC(C)O
298.15 K, 101 kPa
Conditions | viscosity [mPa·s]
x1 = 0.0413 | 2.47
x1 = 0.1256 | 1.88
x1 = 0.236 | 1.474
x1 = 0.3042 | 1.324
x1 = 0.4175 | 1.173
x1 = 0.5 | 1.133
x1 = 0.5207 | 1.092
x1 = 0.5916 | 1.061
x1 = 0.7413 | 1.046
x1 = 0.8431 | 1.071
x1 = 0.9423 | 1.119

CCCC#N + CCC(C)O
viscosity [mPa·s], 101.33 kPa
Conditions | x2 = 0.1016 | x2 = 0.1946 | x2 = 0.2965 | x2 = 0.3938 | x2 = 0.4949 | x2 = 0.5951 | x2 = 0.6966 | x2 = 0.7945 | x2 = 0.8999
298.15 K | 0.572 | 0.605 | 0.652 | 0.717 | 0.811 | 0.945 | 1.141 | 1.435 | 1.982
308.15 K | 0.508 | 0.532 | 0.567 | 0.616 | 0.685 | 0.782 | 0.921 | 1.123 | 1.478
318.15 K | 0.454 | 0.472 | 0.499 | 0.536 | 0.59 | 0.658 | 0.758 | 0.898 | 1.135

C1COCCO1 + CCCCCC
101 kPa
Conditions | viscosity [mPa·s]
303.15 K, x1 = 0.111 | 0.297
303.15 K, x1 = 0.1961 | 0.317
303.15 K, x1 = 0.3001 | 0.348
303.15 K, x1 = 0.4033 | 0.389
303.15 K, x1 = 0.4962 | 0.436
303.15 K, x1 = 0.5966 | 0.498
303.15 K, x1 = 0.7169 | 0.601
303.15 K, x1 = 0.8008 | 0.7
303.15 K, x1 = 0.8988 | 0.854
308.15 K, x1 = 0.1153 | 0.301
308.15 K, x1 = 0.2223 | 0.338
308.15 K, x1 = 0.3421 | 0.388
308.15 K, x1 = 0.4004 | 0.415
308.15 K, x1 = 0.5204 | 0.481
308.15 K, x1 = 0.7211 | 0.644
308.15 K, x1 = 0.8214 | 0.75
308.15 K, x1 = 0.9211 | 0.879
313.15 K, x1 = 0.1153 | 0.287
313.15 K, x1 = 0.2223 | 0.321
313.15 K, x1 = 0.3421 | 0.367
313.15 K, x1 = 0.4004 | 0.391
313.15 K, x1 = 0.5204 | 0.454
313.15 K, x1 = 0.6232 | 0.521
313.15 K, x1 = 0.7211 | 0.603
313.15 K, x1 = 0.8214 | 0.704
313.15 K, x1 = 0.9211 | 0.824
318.15 K, x1 = 0.1153 | 0.275
318.15 K, x1 = 0.2223 | 0.307
318.15 K, x1 = 0.3421 | 0.349
318.15 K, x1 = 0.4004 | 0.373
318.15 K, x1 = 0.5204 | 0.431
318.15 K, x1 = 0.6232 | 0.494
318.15 K, x1 = 0.7211 | 0.568
318.15 K, x1 = 0.8214 | 0.659
318.15 K, x1 = 0.9211 | 0.769

C1COCCO1 + CCCCCCC
viscosity [mPa·s], 101 kPa
Conditions | x1 = 0.1112 | x1 = 0.225 | x1 = 0.3223 | x1 = 0.4312 | x1 = 0.5017 | x1 = 0.6114 | x1 = 0.7213 | x1 = 0.8211 | x1 = 0.9112
308.15 K | 0.363 | 0.396 | 0.422 | 0.471 | 0.505 | 0.572 | 0.658 | 0.76 | 0.875
313.15 K | 0.354 | 0.381 | 0.409 | 0.446 | 0.475 | 0.535 | 0.618 | 0.713 | 0.814
318.15 K | 0.336 | 0.362 | 0.387 | 0.421 | 0.449 | 0.504 | 0.579 | 0.666 | 0.764

C1COCCO1 + CCCCCCCC
viscosity [mPa·s], 101 kPa
Conditions | x1 = 0.1324 | x1 = 0.2242 | x1 = 0.3234 | x1 = 0.4124 | x1 = 0.5114 | x1 = 0.6124 | x1 = 0.7332 | x1 = 0.8231 | x1 = 0.9222
308.15 K | 0.453 | 0.462 | 0.478 | 0.503 | 0.542 | 0.596 | 0.68 | 0.766 | 0.881
313.15 K | 0.431 | 0.44 | 0.452 | 0.476 | 0.512 | 0.561 | 0.64 | 0.717 | 0.828
318.15 K | 0.41 | 0.417 | 0.429 | 0.45 | 0.484 | 0.529 | 0.601 | 0.672 | 0.776

Brc1ccccc1 + CCCCCCCCCCCCCC
viscosity [mPa·s], 101 kPa
Conditions | x2 = 0.1001 | x2 = 0.2007 | x2 = 0.3005 | x2 = 0.3996 | x2 = 0.4985 | x2 = 0.5998 | x2 = 0.6987 | x2 = 0.8012 | x2 = 0.9011
298.15 K | 1.117 | 1.185 | 1.287 | 1.389 | 1.49 | 1.592 | 1.694 | 1.796 | 1.897
303.15 K | 1.042 | 1.13 | 1.218 | 1.306 | 1.394 | 1.482 | 1.57 | 1.658 | 1.746
308.15 K | 0.985 | 1.06 | 1.137 | 1.213 | 1.289 | 1.365 | 1.441 | 1.517 | 1.593

Brc1ccccc1 + CCCCCO
293.15 K, 101.33 kPa
Conditions | viscosity [mPa·s]
x2 = 0.0631 | 1.14
x2 = 0.1715 | 1.212
x2 = 0.2092 | 1.252
x2 = 0.2807 | 1.335
x2 = 0.3259 | 1.398
x2 = 0.3831 | 1.512
x2 = 0.4182 | 1.57
x2 = 0.4909 | 1.716
x2 = 0.5969 | 2.011
x2 = 0.6886 | 2.346
x2 = 0.7544 | 2.636
x2 = 0.8796 | 3.294

C1=C[C@H]2[C@@H](C1)[C@H]1C=C[C@@H]2C1 + CCCCCO
viscosity [mPa·s], 101.2 kPa
Conditions | x1 = 0.1058 | x1 = 0.1953 | x1 = 0.3 | x1 = 0.4005 | x1 = 0.498 | x1 = 0.5999 | x1 = 0.7018 | x1 = 0.8009 | x1 = 0.8999
293.15 K | 3.719 | 3.558 | 3.422 | 3.307 | 3.279 | 3.283 | 3.368 | 3.522 | 3.876
303.15 K | 2.86 | 2.734 | 2.63 | 2.569 | 2.547 | 2.575 | 2.648 | 2.784 | 3.037
313.15 K | 2.201 | 2.126 | 2.062 | 2.032 | 2.035 | 2.075 | 2.14 | 2.259 | 2.466

Ic1ccccc1 + CCCCCO
293.15 K, 101.33 kPa
Conditions | viscosity [mPa·s]
x2 = 0.1 | 1.665
x2 = 0.2 | 1.694
x2 = 0.25 | 1.709
x2 = 0.3834 | 1.864
x2 = 0.4289 | 1.94
x2 = 0.5101 | 2.098
x2 = 0.7761 | 2.915
x2 = 0.8055 | 3.043
x2 = 0.8184 | 3.1
x2 = 0.8554 | 3.273
x2 = 0.9419 | 3.7
x2 = 0.975 | 3.867

C#Cc1ccccc1 + CCCCCOC(C)=O
Conditions | viscosity [mPa·s]
298.15 K, 101 kPa, x1 = 0.0691 | 0.791

C1COCCO1 + CCCCO
298.15 K, 101 kPa
Conditions | viscosity [mPa·s]
x1 = 0.0346 | 2.264
x1 = 0.127 | 1.806
x1 = 0.5 | 1.272
x1 = 0.5917 | 1.099
x1 = 0.6726 | 1.074
x1 = 0.7123 | 1.07
x1 = 0.768 | 1.073
x1 = 0.8002 | 1.078
x1 = 0.8852 | 1.091
x1 = 0.9472 | 1.126

CC(=O)OCC(COC(C)=O)OC(C)=O + CCCCO
viscosity [mPa·s], 101.33 kPa
Conditions | x1 = 0.1 | x1 = 0.2 | x1 = 0.3 | x1 = 0.4 | x1 = 0.5 | x1 = 0.6 | x1 = 0.7 | x1 = 0.8 | x1 = 0.9
298 K | 2.4 | 2.7 | 3.12 | 3.71 | 4.5 | 5.57 | 6.99 | 9.02 | 11.93
303 K | 2.11 | 2.34 | 2.69 | 3.17 | 3.82 | 4.65 | 5.79 | 7.34 | 9.49
308 K | 1.87 | 2.06 | 2.36 | 2.75 | 3.27 | 3.96 | 4.86 | 6.07 | 7.72
313 K | 1.67 | 1.83 | 2.07 | 2.4 | 2.84 | 3.41 | 4.15 | 5.1 | 6.39

— the CheMixHub viscosity set
